Laboratory results from patent publication US20250222128A1, “ANTIBODY DRUG-CONJUGATES TARGETING C-MET AND METHODS OF USE THEREOF” (Zymeworks BC Inc., priority 2022, published 2025).
Where two headings read alike, the source gives them in different places.

Columns and labels:
[1] = molecular target: T1, cMet on H292 endogenous cMet-expressing cell line (Homo sapiens, UniProt P08581); experiment: Cellular equilibrium binding by flow cytometry
T1 construct: SNU-5 and H292 endogenous cMet-expressing cell lines; endogenous in cells; host or cells: H292
Method: (§1) The on-cell binding capabilities of ADCs comprising anti-cMet antibodies with either a HomoFc or HetFc backbone (v32634 and v17427, respectively) conjugated to Drug-Linker 002 by stochastic lysine conjugation at approximately DAR 4 and DAR 6 were assessed for cMet binding using SNU-5 and H292 endogenous cMet-expressing cell lines by flow cytometry as described below. Unconjugated anti-RSV antibody palivizumab (v22277) was used as a control.
(§2) Briefly, cells were seeded at 50,000 cells/well in V-bottom 96-well plates and treated with antibody for 24 hours at 4° C. to prevent internalization. Following incubation, cells were washed and stained with anti-human IgG Fc AF647 conjugate (Jackson ImmunoResearch Laboratories, Inc., West Grove, PA; Cat. No. 109-605-098) at 4° C. for 30 min. Following incubation and washing, fluorescence was detected by flow cytometry on a BD LSRFortessa™ Cell Analyzer (BD Biosciences, Franklin Lake, NJ) with 1,000 minimum events collected per well. AF647/APC-A GeoMean (fluorescence signal geometric mean, proportional to anti-Human AF647 binding) in live cell population was plotted using GraphPad Prism Version 8 (GraphPad Software, San Diego, CA).
(§3) The on-cell binding capabilities of the following unconjugated antibodies and ADCs were assessed on SNU-5 and H292 endogenous cMet-expressing cell lines by flow cytometry: unconjugated variant v17427 (HetFc, unmodified hinge), and cysteine insertion variant v29001 (two cysteine insertions), lysine conjugated ADCs comprising variant v17427 and Drug-Linker 002 at DAR 4 or DAR 6, and cysteine conjugated ADCs comprising cysteine insertion variant insertion v29001 conjugated to Drug-Linker 001, Drug-Linker 003 or Drug-Linker 004 at DAR 2, 4 or 6, respectively. […] Cellular binding was determined as described in Example 10.

[2] = molecular target: T2, cMet on SNU-5 endogenous cMet-expressing cell line (Homo sapiens, UniProt P08581); experiment: Cellular equilibrium binding by flow cytometry
T2 construct: SNU-5 and H292 endogenous cMet-expressing cell lines; endogenous in cells; host or cells: SNU-5
Method: as §1, §2, §3

EBC-1 = experiment: Receptor-mediated internalization, high content imaging; format: cell-based; details: 5 Hours 37° C.
HT-29 = experiment: as above; format: cell-based; details: 5 Hours 37° C.
[3] = system: EBC-1 (lung squamous cell carcinoma); experiment: In vitro cytotoxicity (cell growth inhibition, CellTiter-Glo); format: cell-based
Method: (§4) The cell growth inhibition (cytotoxicity) capabilities of anti-cMet ADCs comprising variant v17427 (HetFc, unmodified hinge) conjugated to Drug-Linker 001 or MCvcPABC-MMAE by stochastic cysteine conjugation at an average DAR 4 were determined in a panel of four cMet-expressing cell lines as described below. The cell lines were EBC-1 (lung squamous cell carcinoma), H292 (lung carcinoma), BT-20 (breast cancer) and SW48 (colorectal cancer).
(§5) Briefly, cells were seeded in 384-well plates at 1,000-1,500 cells/well density and treated with a titration of test article, generated in complete cell growth medium. Treated cells were incubated for 4-5 days under standard culturing conditions (37° C./5% CO2). After incubation, CellTiter-Glo® reagent (Promega Corporation, Madison, WI; Cat. No. G7570) was spiked into each well and luminescence corresponding to ATP present in each well was measured using a Synergy™ H1 microplate (BioTek Instruments, Winooski, VT). Based on blank wells (no test article added, only blank media), % cytotoxicity values were calculated using ATP measurement RLU values (Relative Light Units) and plotted against test article concentration using GraphPad Prism 8 software (GraphPad Software, San Diego, CA).
(§6) Cytotoxicity was determined as described in Example 6 with treated cells (1,000 cells/well) being incubated for 4 days under standard culturing conditions (37° C./5% CO2).
(§7) The cell growth inhibition capabilities of ADCs comprising anti-cMet antibodies with either a HomoFc or HetFc backbone (v32634 and v17427, respectively) conjugated to Drug-Linker 002 by stochastic lysine conjugation at approximately DAR 4 and DAR 6 were assessed in a panel of four cMet-expressing tumour cell lines and one cMet-negative cell line. The anti-RSV antibody, palivizumab (v22277), conjugated to Drug-Linker 002 at DAR 3.7, and free payload (Compound 1), were used as controls. Cytotoxicity was determined as described in Example 8. Cell lines were SNU-5 (gastric carcinoma), EBC-1 (lung squamous cell carcinoma), H1975 (non-small cell lung cancer), H292 (lung carcinoma) and cMet-negative T-47D (breast cancer).
(§8) The cell growth inhibition capabilities of site-specific cysteine-conjugated ADCs comprising various cysteine insertion antibody variants conjugated to Drug-Linker 001 at approximately DAR 1, 2 or 3, were assessed in a panel of four cMet-expressing tumour cell lines, SNU-5 (gastric carcinoma), EBC-1 (lung squamous cell carcinoma), H292 (lung carcinoma) and H1975 (non-small cell lung cancer), and one cMet-negative cell line, T-47D (breast carcinoma). An ADC comprising the anti-RSV antibody palivizumab (v22277) conjugated to Drug-Linker 001 at approximately DAR 4 was used as a non-targeted control. […] Cytotoxicity was determined as described in Example 7.
(§9) The cell growth inhibition capabilities of ADCs comprising variant v29001, having two cysteine insertions, conjugated to multivalent Drug-Linker 003 or multivalent Drug-Linker 004, were assessed in a panel of cMet-expressing tumour cell lines together with ADCs comprising parental variant v17427 conjugated to the monovalent Drug-Linker 002 at DAR 4 or DAR 6. Cell lines used were SNU-5 (gastric carcinoma), EBC-1 (lung squamous cell carcinoma), H292 (lung carcinoma), H1975 (non-small cell lung cancer) and T-47D (breast carcinoma, cMet-negative). ADCs comprising the anti-RSV antibody palivizumab (v22277) conjugated to Drug-Linker 002 were used as non-targeted controls. Free payload Compound 1 was also included as a control. Cytotoxicity was determined as described in Example 8.

H292 (lung carcinoma) = experiment: as above; format: cell-based
Method: as §4, §5, §6, §7, §8, §9

BT-20 (breast cancer) = experiment: as above; format: cell-based
Method: as §4
as §5, with “CA). […]” for “CA).”
as §6

SW48 (colorectal cancer) = experiment: as above; format: cell-based; details: Homo sapiens, 4-5 days, Table 6.1, read-out: EC50 (nM) - DAR corrected
Method: as §4, §5

[4] = system: H1975 (non-small cell lung cancer); experiment: as above; format: cell-based
Method: as §5
(§10) The cell growth inhibition capabilities of anti-cMet ADCs comprising variant v17427 (HetFc, unmodified hinge) conjugated to Drug-Linker 002 by stochastic lysine conjugation at DARs ranging from DAR 2 to DAR 6 were determined in a panel of seven cMet-expressing cell lines. Variant v17427 conjugated to MCvcPABC-MMAE drug linker at DAR 4, and anti-RSV antibody, palivizumab (v22277), conjugated to Drug-Linker 002 or MCvcPABC-MMAE at DAR 4, were used as controls. Cell lines were SNU-5 (gastric carcinoma), EBC-1 (lung squamous cell carcinoma), HCC827 (lung cancer), H1975 (non-small cell lung cancer), HCT-116 (colorectal cancer), H292 (lung carcinoma) and BT-20 (breast cancer).
as §6, §7, §9

[5] = system: SNU-5 (gastric carcinoma); experiment: as above; format: cell-based; details: 4 days
Method: as §5, §10, §6, §7, §9

[6] = system: cMet-negative T-47D (breast cancer); experiment: as above; format: cell-based; details: Homo sapiens, T47D, 96 h
Method: as §5, §6
The cell growth inhibition capabilities of ADCs comprising anti-cMet antibodies with either a HomoFc or HetFc backbone (v32634 and v17427, respectively) conjugated to Drug-Linker 002 by stochastic lysine conjugation at approximately DAR 4 and DAR 6 were assessed in a panel of four cMet-expressing tumour cell lines and one cMet-negative cell line. […] Cytotoxicity was determined as described in Example 8. […]

[7] = system: cMet-positive non-small cell lung carcinoma (NSCLC); details: Phase II trials; cited from earlier work
HCC827 (lung cancer) = experiment: In vitro cytotoxicity (cell growth inhibition, CellTiter-Glo); format: cell-based; details: 4 days, Table 8.1
Method: as §5
(§11) The cell growth inhibition capabilities of anti-cMet ADCs comprising variant v17427 (HetFc, unmodified hinge) conjugated to Drug-Linker 002 by stochastic lysine conjugation at DARs ranging from DAR 2 to DAR 6 were determined in a panel of seven cMet-expressing cell lines. […]
as §6

[8] = system: HCT-116 (colorectal cancer); experiment: as above; format: cell-based; details: 4 days, Table 8.1
Method: as §5, §11, §6

[9] = 24 hours at 4° C., Table 10.1, read-out: Apparent Kd
[10] = Table 13.1, read-out: Apparent Kd

T2 sequence (P08581 25-1390): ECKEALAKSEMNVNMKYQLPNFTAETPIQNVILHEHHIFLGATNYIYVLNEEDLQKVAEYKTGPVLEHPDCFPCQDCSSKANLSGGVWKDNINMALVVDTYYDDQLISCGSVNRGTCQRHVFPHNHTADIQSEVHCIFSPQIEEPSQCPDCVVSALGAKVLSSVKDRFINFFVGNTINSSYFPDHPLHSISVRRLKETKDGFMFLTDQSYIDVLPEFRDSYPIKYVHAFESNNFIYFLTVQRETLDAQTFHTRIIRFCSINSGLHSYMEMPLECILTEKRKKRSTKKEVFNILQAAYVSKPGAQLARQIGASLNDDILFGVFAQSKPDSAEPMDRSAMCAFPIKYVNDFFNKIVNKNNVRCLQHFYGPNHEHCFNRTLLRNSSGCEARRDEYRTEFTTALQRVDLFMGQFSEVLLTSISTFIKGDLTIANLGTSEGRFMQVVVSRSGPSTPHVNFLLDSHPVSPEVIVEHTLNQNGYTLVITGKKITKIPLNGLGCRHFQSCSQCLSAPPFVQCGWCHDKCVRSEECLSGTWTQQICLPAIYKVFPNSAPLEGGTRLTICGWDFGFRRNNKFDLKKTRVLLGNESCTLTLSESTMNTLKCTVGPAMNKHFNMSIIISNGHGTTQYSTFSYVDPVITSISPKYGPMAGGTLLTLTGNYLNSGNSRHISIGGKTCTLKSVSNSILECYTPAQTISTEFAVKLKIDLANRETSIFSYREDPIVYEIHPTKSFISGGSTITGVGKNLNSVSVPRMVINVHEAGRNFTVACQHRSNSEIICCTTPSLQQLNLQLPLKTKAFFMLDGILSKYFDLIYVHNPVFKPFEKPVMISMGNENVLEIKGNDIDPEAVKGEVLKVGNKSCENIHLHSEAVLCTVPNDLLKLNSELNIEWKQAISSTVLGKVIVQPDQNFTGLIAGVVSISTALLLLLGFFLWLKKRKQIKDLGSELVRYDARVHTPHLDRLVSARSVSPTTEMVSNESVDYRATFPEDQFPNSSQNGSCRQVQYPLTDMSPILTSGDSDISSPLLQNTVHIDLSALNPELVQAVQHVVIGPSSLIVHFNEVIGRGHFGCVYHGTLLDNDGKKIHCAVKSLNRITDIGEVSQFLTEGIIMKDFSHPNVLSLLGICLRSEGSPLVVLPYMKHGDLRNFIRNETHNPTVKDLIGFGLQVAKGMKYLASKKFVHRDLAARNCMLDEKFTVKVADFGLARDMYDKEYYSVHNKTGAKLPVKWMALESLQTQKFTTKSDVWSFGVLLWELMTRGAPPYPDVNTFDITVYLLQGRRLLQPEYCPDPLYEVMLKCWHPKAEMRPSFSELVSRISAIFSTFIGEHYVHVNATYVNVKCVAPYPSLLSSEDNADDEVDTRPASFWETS
T1 sequence (P08581 25-1390): as above

v22277: anti-RSV antibody, palivizumab, non-targeted control [reference compound]
Kd [1, 9]: > 50 nM
Kd [1, 10]: > 50 nM
Kd [2, 9]: > 50 nM
Kd [2, 10]: > 50 nM
Mean Object Fluorescence (Internalized) (EBC-1; 0.3 nM): 2,686
Mean Object Fluorescence (Internalized) (EBC-1; 1.9 nM): 3,054
Mean Object Fluorescence (Internalized) (EBC-1; 12 nM): 1,989
Mean Object Fluorescence (Internalized) (EBC-1; 70 nM): 2,605
Mean Object Fluorescence (Internalized) (HT-29; 0.3 nM): 2,746
Mean Object Fluorescence (Internalized) (HT-29; 1.9 nM): 2,363
Mean Object Fluorescence (Internalized) (HT-29; 12 nM): 2,331
Mean Object Fluorescence (Internalized) (HT-29; 70 nM): 2,290

CC[C@H](C)[C@@H]([C@@H](CC(=O)N1CCC[C@H]1[C@H](OC)[C@@H](C)C(=O)NS(=O)(=O)c1ccc(N)cc1)OC)N(C)C(=O)[C@@H](NC(=O)[C@H](C(C)C)N(C)C)C(C)C [Compound 1, (S)-N-((3R,4S,5S)-1-((S)-2-((1R,2R)-3-((4-aminophenyl)sulfonamido)-1-methoxy-2-methyl-3-oxopropyl)pyrrolidin-1-yl)-3-methoxy-5-methyl-1-oxoheptan-4-yl)-2-((S)-2-(dimethylamino)-3-methylbutanamido)-N,3-dimethylbutanamide]
EC50 ([3]; Homo sapiens, EBC-1, 96 h): 26.3 nM
EC50 ([3]; Homo sapiens, EBC-1, read-out: EC50 (nM) - DAR corrected): 44.4 nM
EC50 (H292 (lung carcinoma); Homo sapiens, NCI-H292, 96 h, H292, 4 days, Table 9.1): 7.42 nM
EC50 (H292 (lung carcinoma); Homo sapiens, NCI-H292, 96 h, H292, 4 days, Table 12.1): 7.42 nM
EC50 (H292 (lung carcinoma); Homo sapiens, NCI-H292, read-out: EC50 (nM) - DAR corrected, H292, 4-5 days, Table 6.1): 22.2 nM
EC50 (BT-20 (breast cancer); Homo sapiens, BT-20, read-out: EC50 (nM) - DAR corrected): 39.2 nM
EC50 (SW48 (colorectal cancer)): 43.6 nM
EC50 ([4]; Homo sapiens, NCI-H1975, 96 h): 22.7 nM
EC50 ([5]; Homo sapiens, SNU-5, 96 h, Table 9.1): 40 nM
EC50 ([5]; Homo sapiens, SNU-5, 96 h, Table 12.1): 40.1 nM
EC50 [6]: 44.8 nM

telisotuzumab vedotin
anti-tumour activity [7]: anti-tumour activity

V22277-MCvcPABC-MMAE DAR 4.0: palivizumab (v22277) conjugated to MCvcPABC-MMAE at DAR 4, control [reference compound]
EC50 ([3]; EBC-1, 4 days, Table 8.1, read-out: EC50): > 10 nM
EC50 (H292 (lung carcinoma); H292, 4 days, Table 8.1, read-out: EC50): > 10 nM
EC50 (BT-20 (breast cancer); BT-20, 4 days, Table 8.1, read-out: EC50): > 10 nM
EC50 ([4]; H1975, 4 days, Table 8.1, read-out: EC50): > 10 nM
EC50 ([5]; Table 8.1, read-out: EC50): > 10 nM
EC50 (HCC827 (lung cancer)): > 10 nM
EC50 [8]: > 10 nM
